Laboratory results as given in patent publication US7109338B2, “1,2-disubstituted 1,4-dihydro-4-oxoquinoline compounds” (priority 1999, dated 2006).
Converted amounts (≈) assume the structure as drawn.

How the values were obtained:
[1] = test system: echovirus type 11 (Echo 11, Gregory); test: In vitro anti-picornavirus activity (MTT), Echo 11; assay type: cell-based; settings: HeLa-S3 cells, MTT method, 37° C.
HRV16 (11757) = test: Anti-rhinovirus spectrum (MTT), HRV16; assay type: cell-based, human rhinovirus; parameters: Anti-Rhinovirus activity, HRV16: unit not given here; settings: HRV16
HRV36 (342H) = test: Anti-rhinovirus spectrum (MTT), HRV36; assay type: cell-based, human rhinovirus; parameters: Anti-Rhinovirus activity, HRV36: unit not given here; settings: HRV36
HRV33 (1200) = test: Anti-rhinovirus spectrum (MTT), HRV33; assay type: cell-based, human rhinovirus; parameters: Anti-Rhinovirus activity, HRV33: unit not given here; settings: HRV33
HRV31 (41F) = test: Anti-rhinovirus spectrum (MTT), HRV31; assay type: cell-based, human rhinovirus; parameters: Anti-Rhinovirus activity, HRV31: unit not given here; settings: HRV31
[2] = test system: clinical isolate (89229T); test: microbe, parasite or virus in culture; assay type: cell-based, human rhinovirus; parameters: Anti-Rhinovirus activity, Clinical isolated strain: unit not given here; settings: Clinical isolated strain
HRV 89 (41617-Gallo) = test: Anti-rhinovirus activity (MTT), HRV89; assay type: cell-based, human rhinovirus; parameters: Anti-Rhinovirus activity, HRV89: unit not given here; settings: for IC50 HRV89: HeLa (Ohio strain) cells, MTT method, 33° C.
[3] = test system: human rhinovirus type 1B (HRV 1B, B632); test: Anti-rhinovirus activity (MTT), HRV1B; assay type: cell-based; parameters: Anti-Rhinovirus activity, HRV1B: unit not given here; settings: for IC50 HRV1B: HeLa (Ohio strain) cells, MTT method, 33° C.
[4] = test system: Poliovirus type 1 (Polio 1, Sabin); test: microbe, parasite or virus in culture; assay type: cell-based
HRV14 (1059) = test: Anti-rhinovirus activity (MTT), HRV14; assay type: cell-based, human rhinovirus; parameters: Anti-Rhinovirus activity, HRV14: unit not given here; settings: for IC50 HRV 14: HeLa (Ohio strain) cells, MTT method, 33° C.
HRV 2 (HGP) = test: Anti-rhinovirus activity (MTT), HRV2; assay type: cell-based, human rhinovirus; parameters: Anti-Rhinovirus activity, HRV2: unit not given here; settings: for IC50 HRV2: HeLa (Ohio strain) cells, MTT method, 33° C.
[5] = test system: coxsackievirus type B4 (CB4,JVB); test: In vitro anti-picornavirus activity (MTT), CB4; assay type: cell-based; settings: HeLa cells, MTT method, 37° C.
HRV10 (204-CV14) = test: Anti-rhinovirus spectrum (MTT), HRV10; assay type: cell-based, human rhinovirus; parameters: Anti-Rhinovirus activity, HRV10: unit not given here; settings: HRV10
HRV50(A2#58) = test: Anti-rhinovirus spectrum (MTT), HRV50; assay type: cell-based, human rhinovirus; parameters: Anti-Rhinovirus activity, HRV50: unit not given here; settings: HRV50
HRV3(FEB) = test: Anti-rhinovirus spectrum (MTT), HRV3; assay type: cell-based, human rhinovirus; parameters: Anti-Rhinovirus activity, HRV3: unit not given here; settings: HRV3
HRV1A (E28) = test: Anti-rhinovirus activity (MTT), HRV1A; assay type: cell-based, human rhinovirus; parameters: Anti-Rhinovirus activity, HRV1A: unit not given here; settings: for IC50 HRV 1A: HeLa (Ohio strain) cells, MTT method, 33° C.
HRV41 (56110) = test: Anti-rhinovirus spectrum (MTT), HRV41; assay type: cell-based, human rhinovirus; parameters: Anti-Rhinovirus activity, HRV41: unit not given here; settings: HRV41
HeLa cells = test: Cytotoxicity (MTT, without virus), HeLa; settings: HeLa, no virus, incubated for 4 days
HeLa-S3 cells = test: Cytotoxicity (MTT, without virus), HeLa-S3; settings: HeLa-S3, no virus, incubated for 4 days
HRV8(MRH) = test: Anti-rhinovirus spectrum (MTT), HRV8; assay type: cell-based, human rhinovirus; parameters: Anti-Rhinovirus activity, HRV8: unit not given here; settings: HRV8
HRV21 (47) = test: Anti-rhinovirus spectrum (MTT), HRV21; assay type: cell-based, human rhinovirus; parameters: Anti-Rhinovirus activity, HRV21: unit not given here; settings: HRV21
HRV61 (6669-CV39) = test: Anti-rhinovirus spectrum (MTT), HRV61; assay type: cell-based, human rhinovirus; parameters: Anti-Rhinovirus activity, HRV61: unit not given here; settings: HRV61
HRV13 (353) = test: Anti-rhinovirus spectrum (MTT), HRV13; assay type: cell-based, human rhinovirus; parameters: Anti-Rhinovirus activity, HRV13: unit not given here; settings: HRV13
HRV29 (5582) = test: Anti-rhinovirus spectrum (MTT), HRV29; assay type: cell-based, human rhinovirus; parameters: Anti-Rhinovirus activity, HRV29: unit not given here; settings: HRV29
HRV39 (209) = test: Anti-rhinovirus spectrum (MTT), HRV39; assay type: cell-based, human rhinovirus; parameters: Anti-Rhinovirus activity, HRV39: unit not given here; settings: HRV39
HRV5 = test: Anti-rhinovirus spectrum (MTT), HRV5; assay type: cell-based, human rhinovirus; parameters: Anti-Rhinovirus activity, HRV5: unit not given here; settings: HRV5
HeLa (Ohio strain)cells = test: Cytotoxicity (MTT, without virus), HeLa(Ohio); settings: HeLa(Ohio), no virus, incubated for 4 days
HRV32 (363) = test: Anti-rhinovirus spectrum (MTT), HRV32; assay type: cell-based, human rhinovirus; parameters: Anti-Rhinovirus activity, HRV32: unit not given here; settings: HRV32
[6] = test system: coxsackievirus type A7 (CA7); test: In vitro anti-picornavirus activity (MTT), CA7; assay type: cell-based; settings: HeLa-S3 cells, MTT method, 37° C.

CCn1c2c(c(=O)c3cc(CC(C)C)ccc31)Cc1cc(OC)ccc1-2 [Compound B15]
IC50 Echo 11 [1]: 0.27 µg/mL (≈ 0.777 µM)
Anti-Rhinovirus activity, HRV16 (HRV16 (11757)): 1.2
Anti-Rhinovirus activity, HRV36 (HRV36 (342H)): 0.32
Anti-Rhinovirus activity, HRV33 (HRV33 (1200)): 0.29
Anti-Rhinovirus activity, HRV31 (HRV31 (41F)): 0.38
Anti-Rhinovirus activity, Clinical isolated strain [2]: 1.1
Anti-Rhinovirus activity, HRV89 (HRV 89 (41617-Gallo)): 0.39
IC50 HRV89 (HRV 89 (41617-Gallo)): 0.39 µg/mL (≈ 1.12 µM)
Anti-Rhinovirus activity, HRV1B [3]: 0.36
IC50 HRV1B [3]: 0.36 µg/mL (≈ 1.04 µM)
IC50 Polio 1 [4]: 0.49 µg/mL (≈ 1.41 µM)
Anti-Rhinovirus activity, HRV14 (HRV14 (1059)): 0.84
IC50 HRV 14 (HRV14 (1059)): 0.84 µg/mL (≈ 2.42 µM)
Anti-Rhinovirus activity, HRV2 (HRV 2 (HGP)): 0.44
IC50 HRV2 (HRV 2 (HGP)): 0.44 µg/mL (≈ 1.27 µM)
IC50 CB4 [5]: 1.9 µg/mL (≈ 5.47 µM)
Anti-Rhinovirus activity, HRV10 (HRV10 (204-CV14)): 1.1
Anti-Rhinovirus activity, HRV50 (HRV50(A2#58)): 0.28
Anti-Rhinovirus activity, HRV3 (HRV3(FEB)): 1.1
Anti-Rhinovirus activity, HRV1A (HRV1A (E28)): >2.5
IC50 HRV 1A (HRV1A (E28)): >2.5 µg/mL
Anti-Rhinovirus activity, HRV41 (HRV41 (56110)): 0.18
Cytotoxicity CC50 HeLa (HeLa cells): >2.5 µg/mL
Cytotoxicity CC50 HeLa-S3 (HeLa-S3 cells): >2.5 µg/mL
Anti-Rhinovirus activity, HRV8 (HRV8(MRH)): 0.38
Anti-Rhinovirus activity, HRV21 (HRV21 (47)): 0.34
Anti-Rhinovirus activity, HRV61 (HRV61 (6669-CV39)): 0.39
Anti-Rhinovirus activity, HRV13 (HRV13 (353)): 0.18
Anti-Rhinovirus activity, HRV29 (HRV29 (5582)): 0.67
Anti-Rhinovirus activity, HRV39 (HRV39 (209)): 0.46
Anti-Rhinovirus activity, HRV5 (HRV5): 0.39
Cytotoxicity CC50 HeLa(Ohio) (HeLa (Ohio strain)cells): >2.5 µg/mL
Anti-Rhinovirus activity, HRV32 (HRV32 (363)): 0.65
IC50 CA7 [6]: 2.2 µg/mL (≈ 6.33 µM)

CCn1c2c(c(=O)c3cc(C(C)C)ccc31)C(NC(C)=O)c1ccccc1-2 (stereo not shown)
melting point: 215 °C (dec.)

CCn1c2c(c(=O)c3c(C(C)C)c(OC)ccc31)Cc1ccccc1-2 [Compound B7]
IC50 Echo 11 [1]: 0.25 µg/mL (≈ 0.75 µM)
Anti-Rhinovirus activity, HRV16 (HRV16 (11757)): 0.98
Anti-Rhinovirus activity, HRV36 (HRV36 (342H)): 0.16
Anti-Rhinovirus activity, HRV33 (HRV33 (1200)): 0.097
Anti-Rhinovirus activity, HRV31 (HRV31 (41F)): 0.13
Anti-Rhinovirus activity, Clinical isolated strain [2]: 0.50
Anti-Rhinovirus activity, HRV89 (HRV 89 (41617-Gallo)): 0.30
IC50 HRV89 (HRV 89 (41617-Gallo)): 0.30 µg/mL (≈ 0.9 µM)
Anti-Rhinovirus activity, HRV1B [3]: 0.20
IC50 HRV1B [3]: 0.17 µg/mL (≈ 0.51 µM)
IC50 Polio 1 [4]: 0.42 µg/mL (≈ 1.26 µM)
Anti-Rhinovirus activity, HRV14 (HRV14 (1059)): 0.49
IC50 HRV 14 (HRV14 (1059)): 0.49 µg/mL (≈ 1.47 µM)
Anti-Rhinovirus activity, HRV2 (HRV 2 (HGP)): 0.36
IC50 HRV2 (HRV 2 (HGP)): 0.36 µg/mL (≈ 1.08 µM)
IC50 CB4 [5]: 0.52 µg/mL (≈ 1.56 µM)
Anti-Rhinovirus activity, HRV10 (HRV10 (204-CV14)): 0.41
Anti-Rhinovirus activity, HRV50 (HRV50(A2#58)): 0.12
Anti-Rhinovirus activity, HRV3 (HRV3(FEB)): 0.49
Anti-Rhinovirus activity, HRV1A (HRV1A (E28)): 1.7
IC50 HRV 1A (HRV1A (E28)): 1.7 µg/mL (≈ 5.1 µM)
Anti-Rhinovirus activity, HRV41 (HRV41 (56110)): 0.064
Cytotoxicity CC50 HeLa (HeLa cells): >2.5 µg/mL
Cytotoxicity CC50 HeLa-S3 (HeLa-S3 cells): >2.5 µg/mL
Anti-Rhinovirus activity, HRV8 (HRV8(MRH)): 0.32
Anti-Rhinovirus activity, HRV21 (HRV21 (47)): 0.11
Anti-Rhinovirus activity, HRV61 (HRV61 (6669-CV39)): 0.28
Anti-Rhinovirus activity, HRV13 (HRV13 (353)): 0.13
Anti-Rhinovirus activity, HRV29 (HRV29 (5582)): 0.43
Anti-Rhinovirus activity, HRV39 (HRV39 (209)): 0.38
Anti-Rhinovirus activity, HRV5 (HRV5): 0.22
Cytotoxicity CC50 HeLa(Ohio) (HeLa (Ohio strain)cells): >2.5 µg/mL
Anti-Rhinovirus activity, HRV32 (HRV32 (363)): 0.30
IC50 CA7 [6]: 1.4 µg/mL (≈ 4.2 µM)

CCOC(=O)c1c(-c2ccccc2)n(C)c2ccc(C(C)C)cc2c1=O
melting point: 164 to 165 °C
